In the supplement of paper PMC10331698:
± gives the standard deviation of the averaged measurements.

Tests used:
Experiment in all cases: level (log10 ratio to DMSO vehicle control); higher = higher biomarker level / cell amount than vehicle control
Conditions in all cases: in DMSO
[1] = compound: FC(F)(F)C(F)(C(F)(F)F)C(F)(F)C(F)(F)CC1CO1 [3-(Perfluoro-3-methylbutyl)-1,2-propenoxide]
Protocol: (§1)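 BioMAP Diversity Plus panel of 12 human primary cell co-culture systems (3C, 4H, LPS, SAg, BT, BF4T, BE3C, CASM3C, HDF3CGF, KF3CT, MyoF, Mphg). Compounds were added 1 h before stimulation and left for 24 h (MyoF 48 h; BT 72 h for soluble read-outs or 6 d for IgG). Biomarkers were read by ELISA, cytotoxicity by SRB, PBMC viability and proliferation by Alamar Blue. Each well value was divided by the mean of 8 DMSO control wells on the same plate and log10 transformed; duplicate blinded samples were tested at 4 concentrations.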

[2] = compound: NC(=O)C(F)(F)C(F)(F)F [Pentafluoropropionamide]
Protocol: as §1

[3] = compound: O=C(O)C(F)(F)C(F)(F)C(F)(F)C(F)(F)C(F)(F)C(F)(F)C(F)(F)C(F)F [9-H-Perfluorononanoic acid]
Protocol: as §1

[4] = compound: O=C(O)C(F)(F)C(F)(F)C(F)(F)OC(F)(C(F)(F)F)C(F)(F)F [Perfluoro-4-isopropoxybutanoic acid]
Protocol: as §1

[5] = compound: O=C(O)C(F)(F)C(F)(F)OC(F)(F)F [Perfluoro-3-methoxypropanoic acid]
Protocol: as §1

[6] = compound: O=S(=O)(O)C(F)(F)C(F)(F)C(F)(F)C(F)(F)C(F)(F)C(F)(F)F [Perfluorohexanesulfonic acid]
Protocol: as §1

[7] = compound: OCCC(F)(F)C(F)(F)C(F)(F)C(F)(F)C(F)(F)C(F)(F)F [6:2 Fluorotelomer alcohol]
Protocol: as §1

Test System: BE3C:CD87/uPAR
- level (log10) ([1]; 6700 nM): 0.01 ± 0.011
- level (log10) ([1]; 20000 nM): -0.008 ± 0.0057
- level (log10) ([2]; 6700 nM): 0.0115 ± 0.042
- level (log10) ([2]; 20000 nM): -0.025 ± 0.0057
- level (log10) ([2]; 60000 nM): -0.0145 ± 0.022
- level (log10) ([3]; 6700 nM): 0.0155 ± 0.035
- level (log10) ([3]; 20000 nM): 0.0015 ± 0.0092
- level (log10) ([3]; 60000 nM): 0.0325 ± 0.0021
- level (log10) ([4]; 6700 nM): -0.016 ± 0.033
- level (log10) ([4]; 20000 nM): 0.001 ± 0.031
- level (log10) ([4]; 60000 nM): 0.0275 ± 0.035
- level (log10) ([5]; 6700 nM): -0.0225 ± 0.0092
- level (log10) ([5]; 20000 nM): -0.012 ± 0.013
- level (log10) ([5]; 60000 nM): 0.002 ± 0.041
- level (log10) ([6]; 6700 nM): 0.0285 ± 0.00071
- level (log10) ([6]; 20000 nM): 0.0015 ± 0.0035
- level (log10) ([6]; 60000 nM): 0.035 ± 0.025
- level (log10) ([7]; 6700 nM): 0.005 ± 0.031
- level (log10) ([7]; 20000 nM): -0.0155 ± 0.012

Test System: BT:PBMC Cytotoxicity
- level (log10) ([1]; 6700 nM): -0.0055 ± 0.023
- level (log10) ([1]; 20000 nM): 0.005 ± 0.013
- level (log10) ([2]; 6700 nM): 0.0065 ± 0.042
- level (log10) ([2]; 20000 nM): 0.013 ± 0.034
- level (log10) ([2]; 60000 nM): -0.02 ± 0.0014
- level (log10) ([3]; 6700 nM): -0.009 ± 0.055
- level (log10) ([3]; 20000 nM): 0.0435 ± 0.025
- level (log10) ([3]; 60000 nM): 0.103
- level (log10) ([4]; 6700 nM): 0.02 ± 0.0028
- level (log10) ([4]; 20000 nM): -0.0165 ± 0.0021
- level (log10) ([4]; 60000 nM): 0.056 ± 0.016
- level (log10) ([5]; 6700 nM): -0.0195 ± 0.061
- level (log10) ([5]; 20000 nM): -0.0215 ± 0.019
- level (log10) ([5]; 60000 nM): -0.0005 ± 0.029
- level (log10) ([6]; 6700 nM): 0.0015 ± 0.016
- level (log10) ([6]; 20000 nM): 0.0325 ± 0.0035
- level (log10) ([6]; 60000 nM): 0.061 ± 0.0057
- level (log10) ([7]; 6700 nM): -0.0185 ± 0.026
- level (log10) ([7]; 20000 nM): -0.035 ± 0.0071

Test System: SAg:CD62E/E-Selectin
- level (log10) ([1]; 6700 nM): -0.0195 ± 0.019
- level (log10) ([1]; 20000 nM): -0.012
- level (log10) ([2]; 6700 nM): -0.0215 ± 0.005
- level (log10) ([2]; 20000 nM): -0.0095 ± 0.026
- level (log10) ([2]; 60000 nM): -0.0115 ± 0.018
- level (log10) ([3]; 6700 nM): -0.015 ± 0.013
- level (log10) ([3]; 20000 nM): -0.0075 ± 0.013
- level (log10) ([3]; 60000 nM): 0.065 ± 0.031
- level (log10) ([4]; 6700 nM): -0.0025 ± 0.0021
- level (log10) ([4]; 20000 nM): 0.0125 ± 0.015
- level (log10) ([4]; 60000 nM): -0.01 ± 0.023
- level (log10) ([5]; 6700 nM): 0.004 ± 0.0099
- level (log10) ([5]; 20000 nM): -0.01 ± 0.018
- level (log10) ([5]; 60000 nM): -0.016 ± 0.018
- level (log10) ([6]; 6700 nM): -0.0115 ± 0.00071
- level (log10) ([6]; 20000 nM): -0.008 ± 0.02
- level (log10) ([6]; 60000 nM): 0.0405 ± 0.0064
- level (log10) ([7]; 6700 nM): -0.0015 ± 0.0092
- level (log10) ([7]; 20000 nM): 0.002 ± 0.027

Test System: 3C:HLA-DR
- level (log10) ([1]; 6700 nM): 0.0085 ± 0.00071
- level (log10) ([1]; 20000 nM): 0.018 ± 0.018
- level (log10) ([2]; 6700 nM): -0.0255 ± 0.029
- level (log10) ([2]; 20000 nM): -0.0165 ± 0.013
- level (log10) ([2]; 60000 nM): -0.0125 ± 0.00071
- level (log10) ([3]; 6700 nM): -0.005 ± 0.0028
- level (log10) ([3]; 20000 nM): 0.0005 ± 0.0021
- level (log10) ([3]; 60000 nM): 0.028 ± 0.02
- level (log10) ([4]; 6700 nM): 0.0145 ± 0.044
- level (log10) ([4]; 20000 nM): -0.0035 ± 0.005
- level (log10) ([4]; 60000 nM): 0.002 ± 0.016
- level (log10) ([5]; 6700 nM): -0.0095 ± 0.015
- level (log10) ([5]; 20000 nM): -0.043 ± 0.0085
- level (log10) ([5]; 60000 nM): -0.014 ± 0.0028
- level (log10) ([6]; 6700 nM): -0.0015 ± 0.015
- level (log10) ([6]; 20000 nM): -0.0105 ± 0.023
- level (log10) ([6]; 60000 nM): 0.0125 ± 0.047
- level (log10) ([7]; 6700 nM): 0.0095 ± 0.012
- level (log10) ([7]; 20000 nM): -0.01 ± 0.021

Test System: SAg:CXCL8/IL-8
- level (log10) ([1]; 6700 nM): 0.0035 ± 0.0021
- level (log10) ([1]; 20000 nM): 0.013 ± 0.041
- level (log10) ([2]; 6700 nM): -0.0245 ± 0.025
- level (log10) ([2]; 20000 nM): -0.0255 ± 0.036
- level (log10) ([2]; 60000 nM): 0.0075 ± 0.04
- level (log10) ([3]; 6700 nM): 0.01 ± 0.018
- level (log10) ([3]; 20000 nM): 0.0005 ± 0.0064
- level (log10) ([3]; 60000 nM): 0.0715 ± 0.013
- level (log10) ([4]; 6700 nM): 0.009 ± 0.037
- level (log10) ([4]; 20000 nM): 0.02 ± 0.02
- level (log10) ([4]; 60000 nM): 0.071 ± 0.023
- level (log10) ([5]; 6700 nM): 0.021 ± 0.0028
- level (log10) ([5]; 20000 nM): -0.017 ± 0.034
- level (log10) ([5]; 60000 nM): 0.0095 ± 0.04
- level (log10) ([6]; 6700 nM): 0.0185 ± 0.012
- level (log10) ([6]; 20000 nM): 0.019 ± 0.018
- level (log10) ([6]; 60000 nM): 0.107 ± 0.04
- level (log10) ([7]; 6700 nM): -0.0035 ± 0.011
- level (log10) ([7]; 20000 nM): 0.0035 ± 0.0021

Test System: SAg:CXCL9/MIG
- level (log10) ([1]; 6700 nM): -0.0255 ± 0.005
- level (log10) ([1]; 20000 nM): -0.002 ± 0.018
- level (log10) ([2]; 6700 nM): -0.0145 ± 0.0021
- level (log10) ([2]; 20000 nM): -0.017 ± 0.0014
- level (log10) ([2]; 60000 nM): 0.009 ± 0.014
- level (log10) ([3]; 6700 nM): -0.01 ± 0.017
- level (log10) ([3]; 20000 nM): -0.0055 ± 0.015
- level (log10) ([3]; 60000 nM): 0.0055 ± 0.0064
- level (log10) ([4]; 6700 nM): -0.007 ± 0.0099
- level (log10) ([4]; 20000 nM): 0.002 ± 0.0042
- level (log10) ([4]; 60000 nM): 0.002 ± 0.0071
- level (log10) ([5]; 6700 nM): 0.001 ± 0.0057
- level (log10) ([5]; 20000 nM): 0.006 ± 0.0042
- level (log10) ([5]; 60000 nM): -0.002 ± 0.0099
- level (log10) ([6]; 6700 nM): 0.004
- level (log10) ([6]; 20000 nM): -0.005 ± 0.0057
- level (log10) ([6]; 60000 nM): 0.0035 ± 0.0078
- level (log10) ([7]; 6700 nM): -0.0095 ± 0.0021
- level (log10) ([7]; 20000 nM): -0.0055 ± 0.00071

Test System: LPS:IL-1alpha
- level (log10) ([1]; 6700 nM): -0.0205 ± 0.011
- level (log10) ([1]; 20000 nM): 0.0155 ± 0.0092
- level (log10) ([2]; 6700 nM): 0.0225 ± 0.036
- level (log10) ([2]; 20000 nM): -0.0175 ± 0.019
- level (log10) ([2]; 60000 nM): 0.0255 ± 0.047
- level (log10) ([3]; 6700 nM): 0.0095 ± 0.042
- level (log10) ([3]; 20000 nM): -0.0105 ± 0.00071
- level (log10) ([3]; 60000 nM): -0.014 ± 0.0099
- level (log10) ([4]; 6700 nM): -0.043 ± 0.0071
- level (log10) ([4]; 20000 nM): -0.0015 ± 0.013
- level (log10) ([4]; 60000 nM): 0.0205 ± 0.064
- level (log10) ([5]; 6700 nM): -0.025 ± 0.0071
- level (log10) ([5]; 20000 nM): -0.0285 ± 0.0078
- level (log10) ([5]; 60000 nM): 0.0005 ± 0.0021
- level (log10) ([6]; 6700 nM): -0.001 ± 0.0085
- level (log10) ([6]; 20000 nM): 0.0075 ± 0.029
- level (log10) ([6]; 60000 nM): 0.0365 ± 0.026
- level (log10) ([7]; 6700 nM): 0 ± 0.045
- level (log10) ([7]; 20000 nM): -0.011 ± 0.016

Test System: 3C:CD87/uPAR
- level (log10) ([1]; 6700 nM): -0.0085 ± 0.00071
- level (log10) ([1]; 20000 nM): -0.003 ± 0.0028
- level (log10) ([2]; 6700 nM): -0.052 ± 0.016
- level (log10) ([2]; 20000 nM): -0.042 ± 0.038
- level (log10) ([2]; 60000 nM): -0.049 ± 0.014
- level (log10) ([3]; 6700 nM): -0.013 ± 0.0042
- level (log10) ([3]; 20000 nM): -0.0105 ± 0.023
- level (log10) ([3]; 60000 nM): -0.029 ± 0.034
- level (log10) ([4]; 6700 nM): -0.001 ± 0.04
- level (log10) ([4]; 20000 nM): -0.009 ± 0.041
- level (log10) ([4]; 60000 nM): -0.023 ± 0.033
- level (log10) ([5]; 6700 nM): -0.016 ± 0.05
- level (log10) ([5]; 20000 nM): -0.021 ± 0.013
- level (log10) ([5]; 60000 nM): 0.021 ± 0.021
- level (log10) ([6]; 6700 nM): -0.005 ± 0.027
- level (log10) ([6]; 20000 nM): 0.0045 ± 0.011
- level (log10) ([6]; 60000 nM): -0.0285 ± 0.013
- level (log10) ([7]; 6700 nM): -0.0205 ± 0.059
- level (log10) ([7]; 20000 nM): -0.0095 ± 0.042
